Experimental data published in patent publication US20100152047A1, “Piperazine Compounds Whith a Herbicidal Action” (BASF SE, priority 2007, published 2010).

Experiments:
Assay type in all cases: in vivo
[1] = tested on: CHEAL (Chenopodium album, common lambsquarters); assay: greenhouse herbicidal test, post-emergence, CHEAL; conditions: post-emergence method, application rate 0.5 kg/ha, scale from 0 to 100
Excerpt: (§1) The culture containers used were plastic flowerpots containing loamy sand with approximately 3.0% of humus as the substrate. The seeds of the test plants were sown separately for each species.
(§2) For the post-emergence treatment, the test plants were first grown to a height of 3 to 15 cm, depending on the plant habit, and only then treated with the active ingredients which had been suspended or emulsified in water. For this purpose, the test plants were either sown directly and grown in the same containers, or they were first grown separately as seedlings and transplanted into the test containers a few days prior to treatment.
(§3) Depending on the species, the plants were kept at 10-25° C. or 20-35° C. The test period extended over 2 to 4 weeks. During this time, the plants were tended, and their response to the individual treatments was evaluated.
(§4) Evaluation was carried out using a scale from 0 to 100. 100 means no emergence of the plants, or complete destruction of at least the aerial moieties, and 0 means no damage, or normal course of growth. A good herbicidal activity is given at values of at least 70 and a very good herbicidal activity is given at values of at least 85.
(§5) The plants used in the greenhouse experiments belonged to the following species: […]

[2] = tested on: SETVI (Setaria viridis, green foxtail); assay: greenhouse herbicidal test, post-emergence, SETVI; conditions: post-emergence method, application rate 0.5 kg/ha, scale from 0 to 100
Excerpt: as §1, §2, §3, §4, §5

[3] = tested on: AMARE (Amaranthus retoflexus, redroot pigweed); assay: greenhouse herbicidal test, post-emergence, AMARE; conditions: post-emergence method, application rate 0.5 kg/ha, scale from 0 to 100
Excerpt: as §1, §2, §3, §4, §5

[4] = tested on: LOLMU (Lolium multiflorum, Italian ryegrass); assay: greenhouse herbicidal test, post-emergence, LOLMU; conditions: post-emergence method, application rate 0.5 kg/ha, scale from 0 to 100
Excerpt: as §1, §2, §3, §4, §5

[5] = tested on: APESV (Apera spica-venti, windgrass); assay: greenhouse herbicidal test, post-emergence, APESV; conditions: post-emergence method, application rate 0.5 kg/ha, scale from 0 to 100
Excerpt: as §1, §2, §3, §4, §5

[6] = tested on: SETVI (Setaria viridis, green foxtail); assay: greenhouse herbicidal test, pre-emergence, SETVI; conditions: pre-emergence method, application rate 0.5 kg/ha, scale from 0 to 100
Excerpt: as §1
(§6) For the pre-emergence treatment, the active ingredients, which had been suspended or emulsified in water, were applied directly after sowing by means of finely distributing nozzles. The containers were irrigated gently to promote germination and growth and subsequently covered with transparent plastic hoods until the plants had rooted. This cover caused uniform germination of the test plants, unless this has been impaired by the active ingredients.
as §3, §4, §5

[7] = tested on: CHEAL (Chenopodium album, common lambsquarters); assay: greenhouse herbicidal test, pre-emergence, CHEAL; conditions: pre-emergence method, application rate 0.5 kg/ha, scale from 0 to 100
Excerpt: as §1, §6, §3, §4, §5

[8] = tested on: GALAP (Galium aparine, catchweed bedstraw); assay: greenhouse herbicidal test, post-emergence, GALAP; conditions: post-emergence method, application rate 0.5 kg/ha, scale from 0 to 100
Excerpt: as §1, §2, §3, §4, §5

COc1cccc(C#N)c1C=C1C(=O)N(C)C(C)(Cc2ccccc2)C(=O)N1C (racemic) [Example 14]
herbicidal activity against CHEAL [1]: good to very good | herbicidal activity against SETVI [2]: good to very good

Cc1cccc(C#N)c1C=C1C(=O)N(C)C(C)(Cc2ccccc2)C(=O)N1C (racemic) [Example 16]
herbicidal activity against CHEAL [1]: good to very good | herbicidal activity against AMARE [3]: good to very good | herbicidal activity against SETVI [2]: good to very good

CN1C(=O)C(C)(Cc2ccccc2)NC(=O)C1=Cc1ccccc1[N+](=O)[O-] (racemic) [Example 44]
herbicidal activity against AMARE [3]: good to very good | herbicidal activity against SETVI [2]: good to very good

CN1C(=O)C(C)(Cc2ccccc2)N(C)C(=O)C1=Cc1ccccc1Br (racemic) [Example 10]
herbicidal activity against LOLMU [4]: good (A good herbicidal activity is given at values of at least 70) | herbicidal activity against SETVI [2]: good to very good

CCC1(Cc2ccccc2)C(=O)N(C)C(=Cc2ccccc2C#N)C(=O)N1C (stereo not shown) [Example 3, 2-(5-Benzyl-5-ethyl-1,4-dimethyl-3,6-dioxopiperazin-2-ylidenemethyl)-benzonitrile]
herbicidal activity against CHEAL [1]: good to very good | herbicidal activity against AMARE [3]: good to very good

CN1C(=O)C(C)(Cc2ccccc2)N(C)C(=O)C1=Cc1ccccc1C#N (racemic) [Example 7]
herbicidal activity against CHEAL [1]: good to very good | herbicidal activity against AMARE [3]: good to very good | herbicidal activity against SETVI [2]: good to very good

CN1C(=O)C(C)(Cc2ccc(F)cc2)N(C)C(=O)C1=Cc1ccccc1C#N (racemic) [Example 138]
herbicidal activity against AMARE [3]: good to very good | herbicidal activity against SETVI [2]: good to very good

Cc1cccc([N+](=O)[O-])c1C=C1C(=O)N(C)C(C)(Cc2ccccc2)C(=O)N1C (racemic) [Example 56]
herbicidal activity against AMARE [3]: good to very good | herbicidal activity against SETVI [2]: good to very good

COc1cccc(Br)c1C=C1C(=O)N(C)C(C)(Cc2ccccc2)C(=O)N1C (racemic) [Example 43]
herbicidal activity against AMARE [3]: good to very good | herbicidal activity against APESV [5]: good (A good herbicidal activity is given at values of at least 70)

CN1C(=O)C(C)(Cc2ccccc2)N(C)C(=O)C1=Cc1c(F)cccc1C#N (racemic) [Example 12]
herbicidal activity against CHEAL [1]: good to very good | herbicidal activity against AMARE [3]: good to very good | herbicidal activity against SETVI [2]: good to very good

CCN1C(=O)C(=Cc2ccccc2[N+](=O)[O-])N(C)C(=O)C1(C)Cc1ccccc1 (racemic) [Example 47]
herbicidal activity against AMARE [3]: good to very good | herbicidal activity against SETVI [2]: good to very good

CCc1cccc(C#N)c1C=C1C(=O)N(C)C(C)(Cc2ccccc2)C(=O)N1C (racemic) [Example 29]
herbicidal activity against SETVI [2]: good to very good

CN1C(=O)C(C)(Cc2ccccc2)N(C)C(=O)C1=Cc1c(Cl)cccc1Br (racemic) [Example 11]
herbicidal activity against CHEAL [1]: good to very good | herbicidal activity against AMARE [3]: good to very good | herbicidal activity against SETVI [2]: good to very good

CC(C)C1(Cc2ccccc2)C(=O)N(C)C(=Cc2ccccc2C#N)C(=O)N1C (racemic) [Example 24]
herbicidal activity against AMARE [3]: good to very good

CN1C(=O)C(C)(Cc2ccccc2)N(C)C(=O)C1=Cc1c(Cl)cccc1C#N (racemic) [Example 13]
herbicidal activity against CHEAL [1]: good to very good | herbicidal activity against AMARE [3]: good to very good | herbicidal activity against SETVI [2]: good to very good

CN1C(=O)C(CO)(Cc2ccccc2)N(C)C(=O)C1=Cc1ccccc1C#N (racemic) [Example 25]
herbicidal activity against SETVI [6]: good (A good herbicidal activity is given at values of at least 70) | herbicidal activity against CHEAL [1]: good to very good | herbicidal activity against CHEAL [7]: good (A good herbicidal activity is given at values of at least 70) | herbicidal activity against SETVI [2]: good to very good

CN1C(=O)C(C)(Cc2ccccc2)N(C)C(=O)C1=Cc1ccccc1[N+](=O)[O-] (mixture of isomers) [Example 26]
herbicidal activity against AMARE [3]: good to very good | herbicidal activity against SETVI [2]: good to very good

CN1C(=O)C(C)(Cc2ccc(Cl)cc2)N(C)C(=O)C1=Cc1ccccc1C#N (racemic) [Example 137]
herbicidal activity against GALAP [8]: good (A good herbicidal activity is given at values of at least 70)

CN1C(=O)C(C)(Cc2ccccc2)NC(=O)C1=Cc1ccccc1C#N (racemic) [Example 39]
herbicidal activity against CHEAL [1]: good to very good | herbicidal activity against AMARE [3]: good to very good | herbicidal activity against SETVI [2]: good to very good

CN1C(=O)C(C)(Cc2ccccc2)N(C)C(=O)C1=Cc1c(C#N)ccc(F)c1F (racemic) [Example 18]
herbicidal activity against CHEAL [1]: good to very good | herbicidal activity against AMARE [3]: good to very good | herbicidal activity against SETVI [2]: good to very good
